Target: T1, VHL (VCB E3 ligase complex) (Homo sapiens, UniProt P40337)
T1 construct: VCB complex (VHL·EloB·EloC); with Elongin B, Elongin C
Assay: fluorescence polarization; ternary complex with BCL-xL by native MS
Format: binding

T1 sequence (P40337 whole entry): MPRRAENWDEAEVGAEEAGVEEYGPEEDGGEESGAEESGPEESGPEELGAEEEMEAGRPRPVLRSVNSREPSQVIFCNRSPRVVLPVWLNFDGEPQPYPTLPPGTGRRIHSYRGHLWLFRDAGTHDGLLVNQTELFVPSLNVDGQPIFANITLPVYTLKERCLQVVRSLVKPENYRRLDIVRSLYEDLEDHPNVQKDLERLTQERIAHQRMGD
T1 sequence (Q15370 whole entry partner): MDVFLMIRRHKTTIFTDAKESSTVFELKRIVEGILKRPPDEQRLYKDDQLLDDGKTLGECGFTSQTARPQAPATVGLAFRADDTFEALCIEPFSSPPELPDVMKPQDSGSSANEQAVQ
T1 sequence (Q15369 whole entry partner): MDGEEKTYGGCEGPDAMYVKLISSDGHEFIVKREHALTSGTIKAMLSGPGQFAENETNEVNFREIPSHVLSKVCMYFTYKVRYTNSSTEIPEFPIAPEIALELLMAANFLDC

In the case of `Cc1ncsc1-c1ccc([C@H](C)NC(=O)[C@@H]2C[C@@H](O)CN2C(=O)[C@@H](NC(=O)CCCCCC(=O)N2CCN(CC[C@H](CSc3ccccc3)Nc3ccc(S(=O)(=O)NC(=O)c4ccc(N5CCN(CC6=C(c7ccc(Cl)cc7)CCC(C)(C)C6)CC5)cc4)cc3S(=O)(=O)C(F)(F)F)CC2)C(C)(C)C)cc1` [DT2216], the IC50 is reported as 10.6 µM.
